The record followed here is ChEMBL document CHEMBL4130415, “Discovery of new MD2-targeted anti-inflammatory compounds for the treatment of sepsis and acute lung injury” (Eur J Med Chem, 2017).

SMILES strings stand for the structures. Active and inactive are the calls of the source. The calls are words filed in the database; no cut-off is given here.

For assay [1], the system named is Peritoneal macrophage. The experiment in a line: Antiinflammatory activity in ICR mouse primary peritoneal macrophages assessed as inhibition of LPS-induced TNF-alpha production at 10 uM pretreated for 2 hrs followed by LPS challenge measured after 22 hrs by ELISA relative to control. It counts as functional.
Assay [2] concerns Peritoneal macrophage. As to the kind of experiment: Antiinflammatory activity in ICR mouse primary peritoneal macrophages assessed as inhibition of LPS-induced IL-6 production at 10 uM pretreated for 2 hrs followed by LPS challenge measured after 22 hrs by ELISA relative to control. It counts as functional.
Assay [3] concerns Peritoneal macrophage. As to the kind of experiment: Antiinflammatory activity in ICR mouse primary peritoneal macrophages assessed as inhibition of LPS-induced TNF-alpha production pretreated for 2 hrs followed by LPS challenge measured after 22 hrs by ELISA. It counts as functional, cell-based.
Assay [4] has as its system Peritoneal macrophage. As to the kind of experiment: Antiinflammatory activity in ICR mouse primary peritoneal macrophages assessed as inhibition of LPS-induced IL-6 production pretreated for 2 hrs followed by LPS challenge measured after 22 hrs hrs by ELISA. It counts as functional, cell-based. For orientation: An ELISA detects its analyte on a solid surface through an enzyme-linked reagent.

Assay [5] has as its system Peritoneal macrophage. The experiment in a line: Antiinflammatory activity in ICR mouse primary peritoneal macrophages assessed as inhibition of Pam3CK-induced TNF-alpha production at 10 uM pretreated for 2 hrs followed by Pam3CK challenge measured after 12 hrs by ELISA. It counts as functional, cell-based.
In assay [6] the test system is Mus musculus. The experiment in a line: Antiinflammatory activity in LPS-induced C57BL/6 mouse assessed as mouse survival at 10 mg/kg, iv pretreated for 15 mins followed by LPS challenge measured after 7 days. Type of assay: functional, organism-based.
In assay [7] the test system is Mus musculus. As to the kind of experiment: Antiinflammatory activity in C57BL/6 mouse assessed as reduction in LPS-induced total protein level in bronchoalveolar lavage fluid at 10 mg/kg, iv pretreated for 15 mins followed by LPS challenge measured after 6 hrs. Type of assay: functional, organism-based.
The test system of assay [8] is Mus musculus. As to the kind of experiment: Antiinflammatory activity in C57BL/6 mouse assessed as reduction in LPS-induced total cell numbers in bronchoalveolar lavage fluid at 10 mg/kg, iv pretreated for 15 mins followed by LPS challenge measured after 6 hrs by flow cytometric analysis. Type of assay: functional, organism-based.
For assay [9], the system named is Mus musculus. The experiment in a line: Antiinflammatory activity in C57BL/6 mouse assessed as reduction in LPS-induced wet to dry lung edema ratio at 10 mg/kg, iv pretreated for 15 mins followed by LPS challenge measured after 6 hrs. It counts as functional, organism-based.
The test system of assay [10] is Mus musculus. As to the kind of experiment: Antiinflammatory activity in C57BL/6 mouse assessed as reduction in LPS-induced TNF-alpha mRNA level in bronchoalveolar lavage fluid at 10 mg/kg, iv pretreated for 15 mins followed by LPS challenge measured after 6 hrs by qPCR analysis. It counts as functional, organism-based. For orientation: Real-time PCR tracks product formation cycle by cycle.

Assay [11] relates to Mus musculus. The experiment in a line: Antiinflammatory activity in C57BL/6 mouse assessed as reduction in LPS-induced IL-6 mRNA level in bronchoalveolar lavage fluid at 10 mg/kg, iv pretreated for 15 mins followed by LPS challenge measured after 6 hrs by qPCR analysis. It counts as functional, organism-based.
Assay [12] deals with Mus musculus. The experiment in a line: Antiinflammatory activity in C57BL/6 mouse assessed as reduction in LPS-induced IL-1beta mRNA level in bronchoalveolar lavage fluid at 10 mg/kg, iv pretreated for 15 mins followed by LPS challenge measured after 6 hrs by qPCR analysis. Type of assay: functional, organism-based.
In assay [13] the test system is Mus musculus. As to the kind of experiment: Antiinflammatory activity in C57BL/6 mouse assessed as reduction in LPS-induced inflammatory cell infiltration in lung at 10 mg/kg, iv pretreated for 15 mins followed by LPS challenge measured after 6 hrs by hematoxylin and eosin staining-based light microscopic analysis. It counts as functional, organism-based.
The test system of assay [14] is Mus musculus. As to the kind of experiment: Antiinflammatory activity in C57BL/6 mouse assessed as reduction in LPS-induced interalveolar septal thickening in lung at 10 mg/kg, iv pretreated for 15 mins followed by LPS challenge measured after 6 hrs by hematoxylin and eosin staining-based light microscopic analysis. Type of assay: functional, organism-based.
Assay [15] relates to Mus musculus. The experiment in a line: Antiinflammatory activity in C57BL/6 mouse assessed as reduction in LPS-induced interstitial edema in lung at 10 mg/kg, iv pretreated for 15 mins followed by LPS challenge measured after 6 hrs by hematoxylin and eosin staining-based light microscopic analysis. It counts as functional, organism-based.
The subject of assay [16] is Mus musculus. The experiment in a line: Antiinflammatory activity in LPS-induced C57BL/6 mouse assessed as increase in immunoreactivity to CD68 in lung at 10 mg/kg, iv pretreated for 15 mins followed by LPS challenge measured after 6 hrs by immunohistochemical analysis. Type of assay: functional, organism-based.

In general, inhibition refers to the relative decrease from the control value, in per cent. As to `COc1ccc(/C=C2\CCC/C(=C\c3cccc(OC)c3OC)C2=O)c(F)c1`, the inhibition entry in the assay with Peritoneal macrophage [1] and in the assay on Peritoneal macrophage [2] was “inactive” throughout.
In the case of `COc1cc(O)c(CC=C(C)C)c(O)c1C(=O)/C=C/c1ccc(O)cc1`, the inhibition result with Peritoneal macrophage [1] and with Peritoneal macrophage [2] was “inactive” each time.
Usually IC50 stands for the concentration at which inhibition is half-maximal. For the compound `COc1ccccc1/C=C/C(=O)/C=C/c1ccc(O)c(Br)c1`, in the assay on Peritoneal macrophage [3], the IC50 was found to be 3.71 µM and the inhibition entry is “Dose-dependent effect”. Also, in the assay with Peritoneal macrophage [4], the half-maximal inhibitory concentration (IC50) came out at 4.13 µM and the inhibition result is “Dose-dependent effect”. In the assay on Peritoneal macrophage [5], the inhibition result was “inactive”.
As for `COc1cc(OC)c(/C=C/C(=O)/C=C/c2cccc(OC)c2OC)c(OC)c1`, the inhibition entry with Peritoneal macrophage [1] and with Peritoneal macrophage [2] was “inactive” in each case.
Consider `COc1cccc(/C=C/C(=O)/C=C/c2ccc(O)c(Br)c2)c1OC`, for which the results for the IC50 in the assay with Peritoneal macrophage [3] and with Peritoneal macrophage [4] were 2.96 µM and 3.62 µM, respectively. In addition, the inhibition result in the assay with Peritoneal macrophage [3] and in the assay with Peritoneal macrophage [4] was “Dose-dependent effect” throughout. In the assay on Peritoneal macrophage [5], the inhibition result was “inactive”. In addition, in the assay on Mus musculus [6], the result was Active.
In the case of `COc1ccccc1/C=C/C(=O)/C=C/c1ccccc1Br`, the inhibition at 10 µM in the assay with Peritoneal macrophage [1] was determined as 97.6%; in the assay with Peritoneal macrophage [2], 99.6%. The IC50 in the assay with Peritoneal macrophage [3] is 4.73 µM; in the assay with Peritoneal macrophage [4], 4.18 µM. Also, the inhibition result in the assay with Peritoneal macrophage [3] and with Peritoneal macrophage [4] was “Dose-dependent effect” throughout. For the same compound, the inhibition result in the assay with Peritoneal macrophage [5] is “inactive”. Besides, the result in the assay with Mus musculus [6], in the assay on Mus musculus [7], with Mus musculus [8], with Mus musculus [9], in the assay with Mus musculus [10] and in the assay with Mus musculus [11] was Active. In addition, the outcome in the assay on Mus musculus [12], in the assay with Mus musculus [13], in the assay with Mus musculus [14], in the assay with Mus musculus [15] and in the assay with Mus musculus [16] was Active.
Consider `COc1cc(OC)c(/C=C/C(=O)/C=C/c2ccc(OC)c(OC)c2)c(OC)c1`, for which the inhibition entry with Peritoneal macrophage [1] and with Peritoneal macrophage [2] was “inactive” each time.
